According to ChEMBL document CHEMBL1772985, “N-(3-fluoro-4-(4-(2-methoxy or 2,3-dichlorophenyl)piperazine-1-yl)butyl)arylcarboxamides as selective dopamine D3 receptor ligands: critical role of the carboxamide linker for D3 receptor selectivity” (J Med Chem, 2011):

Columns and labels:
D(3) dopamine receptor [1] = target: T1, D(3) dopamine receptor (Homo sapiens, UniProt P35462); assay: Displacement of [125I]-IABN from human dopamine D3 receptor expressed in HEK293 cells after 60 mins by gamma counting; format: cell-based
D(2) dopamine receptor = D(2) dopamine receptor (Homo sapiens, UniProt P14416); assay: Displacement of [125I]-IABN from human dopamine D2L receptor expressed in HEK293 cells after 60 mins by gamma counting; format: cell-based
Homo sapiens = species on record: Homo sapiens; assay: Selectivity ratio Ki for human dopamine D2L receptor to Ki for human dopamine D3 receptor
[2] = target: T2, 5-hydroxytryptamine receptor 1A (Homo sapiens) (UniProt P08908); assay: Displacement of [3H]8-OH-DPAT from 5HT1A receptor at 10 uM
T2 sequence (whole entry): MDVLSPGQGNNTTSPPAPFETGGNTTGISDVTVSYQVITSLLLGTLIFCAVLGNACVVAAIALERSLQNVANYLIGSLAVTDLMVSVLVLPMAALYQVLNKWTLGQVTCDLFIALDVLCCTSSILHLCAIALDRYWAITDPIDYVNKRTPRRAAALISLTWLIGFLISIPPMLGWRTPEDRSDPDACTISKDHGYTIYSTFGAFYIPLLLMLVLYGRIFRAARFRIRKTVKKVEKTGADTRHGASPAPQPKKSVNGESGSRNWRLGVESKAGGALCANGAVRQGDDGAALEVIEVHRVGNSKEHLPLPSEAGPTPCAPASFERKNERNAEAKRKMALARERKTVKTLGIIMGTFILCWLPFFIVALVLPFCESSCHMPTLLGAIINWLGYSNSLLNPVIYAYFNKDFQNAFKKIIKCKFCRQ

[3] = target: 5-hydroxytryptamine receptor 2A (Homo sapiens, UniProt P28223)
D(3) dopamine receptor [4] = target: T1, D(3) dopamine receptor; assay: Antagonist activity at human dopamine D3 receptor expressed in CHOp cells assessed as inhibition of quinpirole-induced mitogenesis; format: functional, cell-based
D(3) dopamine receptor [5] = target: T1, D(3) dopamine receptor; assay: Antagonist activity at human dopamine D3 receptor expressed in CHO-K1 cells assessed as inhibition of dopamine-induced recruitment of beta-arrestin-2 at 10 uM after 90 mins by beta-galactosidase assay; format: functional, cell-based
D(3) dopamine receptor [6] = target: T1, D(3) dopamine receptor; assay: Antagonist activity at human dopamine D3 receptor expressed in CHO-K1 cells assessed as inhibition of dopamine-induced recruitment of beta-arrestin-2 after 90 mins by beta-galactosidase assay; format: functional, cell-based
[7] = target: T3, 5-hydroxytryptamine receptor 1A (Homo sapiens, UniProt P08908); assay: Displacement of [3H]8-OH-DPAT from 5HT1A receptor
T3 sequence (P08908 whole entry): T2 sequence (whole entry)

[8] = target: T3, 5-hydroxytryptamine receptor 1A; assay: Agonist activity at 5HT1A receptor assessed as stimulation of [35S]GTPgammaS binding; format: functional
[9] = target: T2, 5-hydroxytryptamine receptor 1A (Homo sapiens); assay: Agonist activity at 5HT1A receptor assessed as stimulation of [35S]GTPgammaS binding relative to control; format: functional; set-up: concentration or dose not given beside the values
D(4) dopamine receptor = target: T4, D(4) dopamine receptor (Homo sapiens, UniProt P21917); assay: Displacement of [125I]-IABN from human dopamine D4 receptor expressed in HEK293 cells after 60 mins by gamma counting; format: cell-based
T4 sequence (P21917 whole entry): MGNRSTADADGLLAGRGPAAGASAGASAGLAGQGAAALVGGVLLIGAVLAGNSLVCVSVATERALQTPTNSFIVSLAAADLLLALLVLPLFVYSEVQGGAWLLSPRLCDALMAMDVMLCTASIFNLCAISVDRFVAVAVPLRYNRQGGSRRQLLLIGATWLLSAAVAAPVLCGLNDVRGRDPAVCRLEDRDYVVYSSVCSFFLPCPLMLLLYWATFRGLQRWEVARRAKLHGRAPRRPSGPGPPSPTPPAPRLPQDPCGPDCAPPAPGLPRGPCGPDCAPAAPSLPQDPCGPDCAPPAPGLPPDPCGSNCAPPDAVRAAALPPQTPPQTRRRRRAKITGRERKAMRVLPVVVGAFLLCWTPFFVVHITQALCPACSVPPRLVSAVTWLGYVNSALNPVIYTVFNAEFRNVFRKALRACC

[10] = Binding affinity to human dopamine D2/D3 receptor chimera B expressed in HEK293 cells; format: cell-based
[11] = Binding affinity to human dopamine D2/D3 receptor chimera C expressed in HEK293 cells; format: cell-based
[12] = Binding affinity to human dopamine D2/E2 loop of D3 receptor expressed in HEK293 cells; format: cell-based

D(2) dopamine receptor, sequence (P14416 whole entry): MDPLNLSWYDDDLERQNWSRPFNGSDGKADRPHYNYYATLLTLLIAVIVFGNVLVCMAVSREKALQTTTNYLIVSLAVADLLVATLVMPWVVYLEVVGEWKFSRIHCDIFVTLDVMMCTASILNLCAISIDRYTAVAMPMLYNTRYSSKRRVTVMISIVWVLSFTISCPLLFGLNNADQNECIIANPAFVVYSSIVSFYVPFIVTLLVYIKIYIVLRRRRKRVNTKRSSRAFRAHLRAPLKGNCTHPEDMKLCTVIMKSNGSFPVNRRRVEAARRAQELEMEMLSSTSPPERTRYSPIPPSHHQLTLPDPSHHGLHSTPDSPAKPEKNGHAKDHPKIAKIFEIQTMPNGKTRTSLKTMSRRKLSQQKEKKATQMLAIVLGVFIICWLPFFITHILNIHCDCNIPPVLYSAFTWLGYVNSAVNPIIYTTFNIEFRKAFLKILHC
5-hydroxytryptamine receptor 2A, sequence (P28223 whole entry): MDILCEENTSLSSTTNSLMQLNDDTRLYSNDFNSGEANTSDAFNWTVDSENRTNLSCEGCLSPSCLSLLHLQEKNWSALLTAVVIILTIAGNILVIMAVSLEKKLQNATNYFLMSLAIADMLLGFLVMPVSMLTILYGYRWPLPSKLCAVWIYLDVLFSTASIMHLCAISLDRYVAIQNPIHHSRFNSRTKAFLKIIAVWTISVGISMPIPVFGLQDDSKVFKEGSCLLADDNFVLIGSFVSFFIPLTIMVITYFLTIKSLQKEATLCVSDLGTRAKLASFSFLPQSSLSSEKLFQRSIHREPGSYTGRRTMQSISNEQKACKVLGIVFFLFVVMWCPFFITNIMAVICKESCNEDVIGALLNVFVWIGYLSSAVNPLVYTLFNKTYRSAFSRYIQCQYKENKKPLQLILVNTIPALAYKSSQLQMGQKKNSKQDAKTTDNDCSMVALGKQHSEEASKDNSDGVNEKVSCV
T1 sequence (P35462 whole entry): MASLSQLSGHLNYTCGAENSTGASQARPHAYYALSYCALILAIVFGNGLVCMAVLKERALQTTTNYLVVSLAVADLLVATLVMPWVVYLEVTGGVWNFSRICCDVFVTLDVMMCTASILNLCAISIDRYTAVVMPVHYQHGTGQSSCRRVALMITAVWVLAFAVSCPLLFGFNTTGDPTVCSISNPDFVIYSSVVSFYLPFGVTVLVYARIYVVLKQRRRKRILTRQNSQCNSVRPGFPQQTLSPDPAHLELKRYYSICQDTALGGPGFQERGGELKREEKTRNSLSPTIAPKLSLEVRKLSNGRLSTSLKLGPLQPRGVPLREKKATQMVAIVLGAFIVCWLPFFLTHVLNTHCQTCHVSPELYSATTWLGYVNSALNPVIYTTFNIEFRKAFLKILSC

Structure (SMILES)	Ki (D(3) dopamine receptor [1]) [nM]	Ki (D(2) dopamine receptor) [nM]	Ratio Ki (Homo sapiens)	inhibition [2] [%]	Ki [3] [nM]	IC50 (D(3) dopamine receptor [4]) [nM]	inhibition (D(3) dopamine receptor [5]) [%]	IC50 (D(3) dopamine receptor [6]) [nM]	Ki [7] [nM]	EC50 [8] [nM]	Activity [9] [%]	Ki (D(4) dopamine receptor) [nM]	Kd [10] [nM]	Kd [11] [nM]	Kd [12] [nM]
OC(CCNCc1ccc2c(c1)Cc1ccccc1-2)CN1CCN(c2cccc(Cl)c2Cl)CC1 (configuration not stated)	134	2090	16												
COc1ccc2[nH]c(C(=O)NCCC(F)CN3CCN(c4cccc(Cl)c4Cl)CC3)cc2c1 (configuration not stated)	1.5	230	153	< 50	272	320	< 50								
O=C(NCCC(F)CN1CCN(c2cccc(Cl)c2Cl)CC1)c1cc2ccccc2s1 (configuration not stated)	2.9	472	163		3290	17		3770	2140						
O=C(NC/C=C/CN1CCN(c2cccc(Cl)c2Cl)CC1)c1ccc(-c2ccccn2)cc1			133												
O=C(NCCC(F)CN1CCN(c2cccc(Cl)c2Cl)CC1)c1ccc2c(c1)Cc1ccccc1-2 (configuration not stated)	2.6	4260	1640		4800	800	< 50		6000						
CCCN(CCCCN1CCN(c2ccccc2OC)CC1)Cc1ccc2c(c1)Cc1ccccc1-2	71.5	196	3												
COc1ccccc1N1CCN(CC(F)CCNC(=O)c2cc3ccccc3[nH]2)CC1 (configuration not stated)	9.5	421	44		3240	820	< 50		101	1430	83	1490			
COc1ccccc1N1CCN(CC(F)CCNC(=O)c2ccc3c(c2)Cc2ccccc2-3)CC1 (configuration not stated)	10.1	2890	286		> 10000	214	< 50		299			3180			
CCCN(CCCCN1CCN(c2cccc(Cl)c2Cl)CC1)Cc1cc2ccccc2s1		162	2												
FC(CCNCc1ccc2c(c1)Cc1ccccc1-2)CN1CCN(c2cccc(Cl)c2Cl)CC1 (configuration not stated)	467	5270	11												
COc1ccc2oc(C(=O)NCCC(F)CN3CCN(c4ccccc4OC)CC3)cc2c1 (configuration not stated)	13.9	274	20		3000	780		1240	73	600	76				
COc1ccc2[nH]c(C(=O)NCCC(F)CN3CCN(c4ccccc4OC)CC3)cc2c1 (configuration not stated)	4.6	302	66		3540	1140		2990	1170						
COc1ccccc1N1CCN(CC(F)CCNC(=O)c2cc3ccccc3s2)CC1 (configuration not stated)	3.8	241	63		3030	83		3210	139	440	57				
CCCN(CCCCN1CCN(c2cccc(Cl)c2Cl)CC1)Cc1ccc2ccccc2c1	104	313	3												
CN(CCC(O)CN1CCN(c2cccc(Cl)c2Cl)CC1)Cc1ccc2c(c1)Cc1ccccc1-2 (configuration not stated)	162	869	5												
O=C(NCCC(F)CN1CCN(c2cccc(Cl)c2Cl)CC1)c1ccc2ccccc2c1 (configuration not stated)	6.1	195	32	< 50	1910	255	< 50								
CCCN(CCCCN1CCN(c2cccc(Cl)c2Cl)CC1)Cc1ccc2c(c1)Cc1ccccc1-2	129	269	2												
COc1ccccc1N1CCN(CC(F)CCNC(=O)c2cc3ccccc3o2)CC1 (configuration not stated)	28.6	329	11		4800	440			37.9	134	60				
CCCN(CCCCN1CCN(c2ccccc2OC)CC1)Cc1cc2ccccc2s1	67.9	69.9	1												
CCCN(CCCCN1CCN(c2ccccc2OC)CC1)Cc1ccc2ccccc2c1	80.8	119	1.5												
COc1ccccc1N1CCN(CC(F)CCNC(=O)c2ccc(-c3ccccn3)cc2)CC1 (configuration not stated)	20.5	390	19		2060	390		699	49	71.6	73				
COc1ccc2oc(C(=O)NCCC(F)CN3CCN(c4cccc(Cl)c4Cl)CC3)cc2c1 (configuration not stated)	8	279	35		274	1430	< 50		501						
O=C(NCCC(F)CN1CCN(c2cccc(Cl)c2Cl)CC1)c1cc2ccccc2[nH]1 (configuration not stated)	4	526	131		212			1220	223	2140	88	3360			
O=C(NCCC(F)CN1CCN(c2cccc(Cl)c2Cl)CC1)c1ccc(-c2ccccn2)cc1 (configuration not stated)	6.2	378			98	256			159	1080		3090			
O=C(NCCC(F)CN1CCN(c2cccc(Cl)c2Cl)CC1)c1cc2ccccc2o1 (configuration not stated)													0.02	0.02	0.08
CN(CCC(F)CN1CCN(c2cccc(Cl)c2Cl)CC1)Cc1ccc2c(c1)Cc1ccccc1-2 (configuration not stated)	393	2060	5	< 50	2580	918									
